Assay results as given in publication PMC10866072, “Design, synthesis, molecular modelling and biological evaluation of novel 6-amino-5-cyano-2-thiopyrimidine derivatives as potent anticancer agents against leukemia and apoptotic inducers” (Journal of Enzyme Inhibition and Medicinal Chemistry, 2024).

Tests used:
CCRF-CEM = type: cell-based; conditions: one dose 10^-5 M, 48 h
HL-60(TB) = type: cell-based; conditions: one dose 10^-5 M, 48 h
K-562 = type: cell-based; conditions: one dose 10^-5 M, 48 h
MOLT-4 = type: cell-based; conditions: one dose 10^-5 M, 48 h
RPMI-8226 = type: cell-based; conditions: one dose 10^-5 M, 48 h
SR = type: cell-based; conditions: one dose 10^-5 M, 48 h
A549/ATCC = type: cell-based; conditions: one dose 10^-5 M, 48 h
EKVX = type: cell-based; conditions: one dose 10^-5 M, 48 h
HOP-62 = type: cell-based; conditions: one dose 10^-5 M, 48 h
HOP-92 = type: cell-based; conditions: one dose 10^-5 M, 48 h
NCI-H226 = type: cell-based; conditions: one dose 10^-5 M, 48 h
NCI-H23 = type: cell-based; conditions: one dose 10^-5 M, 48 h
NCI-H460 = type: cell-based; conditions: one dose 10^-5 M, 48 h
NCI-H522 = type: cell-based; conditions: one dose 10^-5 M, 48 h
COLO 205 = type: cell-based; conditions: one dose 10^-5 M, 48 h
HCC-2998 = type: cell-based; conditions: one dose 10^-5 M, 48 h
HCT-116 = type: cell-based; conditions: one dose 10^-5 M, 48 h
HCT-15 = type: cell-based; conditions: one dose 10^-5 M, 48 h
HT29 = type: cell-based; conditions: one dose 10^-5 M, 48 h
KM12 = type: cell-based; conditions: one dose 10^-5 M, 48 h
SW-620 = type: cell-based; conditions: one dose 10^-5 M, 48 h
SF-268 = type: cell-based; conditions: one dose 10^-5 M, 48 h
SF-295 = type: cell-based; conditions: one dose 10^-5 M, 48 h
SF-539 = type: cell-based; conditions: one dose 10^-5 M, 48 h
SNB-19 = type: cell-based; conditions: one dose 10^-5 M, 48 h
SNB-75 = type: cell-based; conditions: one dose 10^-5 M, 48 h
U251 = type: cell-based; conditions: one dose 10^-5 M, 48 h
LOX IMVI = type: cell-based; conditions: one dose 10^-5 M, 48 h
MALME-3M = type: cell-based; conditions: one dose 10^-5 M, 48 h
M14 = type: cell-based; conditions: one dose 10^-5 M, 48 h
MDA-MB-435 = type: cell-based; conditions: one dose 10^-5 M, 48 h
SK-MEL-2 = type: cell-based; conditions: one dose 10^-5 M, 48 h
SK-MEL-28 = type: cell-based; conditions: one dose 10^-5 M, 48 h
SK-MEL-5 = type: cell-based; conditions: one dose 10^-5 M, 48 h
UACC-257 = type: cell-based; conditions: one dose 10^-5 M, 48 h
UACC-62 = type: cell-based; conditions: one dose 10^-5 M, 48 h
IGROV1 = type: cell-based; conditions: one dose 10^-5 M, 48 h
OVCAR-3 = type: cell-based; conditions: one dose 10^-5 M, 48 h
OVCAR-4 = type: cell-based; conditions: one dose 10^-5 M, 48 h
OVCAR-5 = type: cell-based; conditions: one dose 10^-5 M, 48 h
OVCAR-8 = type: cell-based; conditions: one dose 10^-5 M, 48 h
NCI/ADR-RES = type: cell-based; conditions: one dose 10^-5 M, 48 h
SK-OV-3 = type: cell-based; conditions: one dose 10^-5 M, 48 h
786-0 = type: cell-based; conditions: one dose 10^-5 M, 48 h
A498 = type: cell-based; conditions: one dose 10^-5 M, 48 h
ACHN = type: cell-based; conditions: one dose 10^-5 M, 48 h
CAKI-1 = type: cell-based; conditions: one dose 10^-5 M, 48 h
SN12C = type: cell-based, human; conditions: one dose 10^-5 M, 48 h
TK-10 = type: cell-based; conditions: one dose 10^-5 M, 48 h
UO-31 = type: cell-based; conditions: one dose 10^-5 M, 48 h
PC-3 = type: cell-based; conditions: one dose 10^-5 M, 48 h
DU-145 = type: cell-based; conditions: one dose 10^-5 M, 48 h
MCF7 = type: cell-based; conditions: one dose 10^-5 M, 48 h
MDA-MB-231/ATCC = type: cell-based; conditions: one dose 10^-5 M, 48 h
HS 578T = type: cell-based; conditions: one dose 10^-5 M, 48 h; HS 578T
BT-549 = type: cell-based; conditions: one dose 10^-5 M, 48 h
T-47D = type: cell-based; conditions: one dose 10^-5 M, 48 h
MDA-MB-468 = type: cell-based; conditions: one dose 10^-5 M, 48 h
[1] = system: full NCI 60 cell lines panel

With “3-Amino-4-[4-(dimethylamino)phenyl]-1H-pyrazolo[3,4-d]pyrimidine-6-thiol [Compound 3a]” the “% growth” value (CCRF-CEM) was 77.55%, the “% growth” value (HL-60(TB)) was 89.88% and the “% growth” value (K-562) was 102.48%. The “% growth” value (MOLT-4) was 100.00%, the “% growth” value (RPMI-8226) was 86.49% and the “% growth” value (SR) was 90.80%. For the same substance, the “% growth” value (A549/ATCC) was 110.12%, the “% growth” value (EKVX) was 97.12% and the “% growth” value (HOP-62) was 108.87%. The “% growth” value (HOP-92) was 116.09%, the “% growth” value (NCI-H226) was 95.19% and the “% growth” value (NCI-H23) was 98.77%. For the same substance, the “% growth” value (NCI-H460) was 108.52%, the “% growth” value (NCI-H522) was 92.08% and the “% growth” value (COLO 205) was 120.31%. For the same substance, the “% growth” value (HCC-2998) was 108.59%, the “% growth” value (HCT-116) was 101.11% and the “% growth” value (HCT-15) was 95.53%. The “% growth” value (HT29) was 108.47%, the “% growth” value (KM12) was 97.17% and the “% growth” value (SW-620) was 115.71%. The “% growth” value (SF-268) was 105.34%, the “% growth” value (SF-295) was 105.95% and the “% growth” value (SF-539) was 108.53%. For the same substance, the “% growth” value (SNB-19) was 101.52%, the “% growth” value (SNB-75) was 116.67% and the “% growth” value (U251) was 109.49%. For the same substance, the “% growth” value (LOX IMVI) was 97.52%, the “% growth” value (MALME-3M) was 102.71% and the “% growth” value (M14) was 99.09%. The “% growth” value (MDA-MB-435) was 109.49%, the “% growth” value (SK-MEL-2) was 111.64% and the “% growth” value (SK-MEL-28) was 112.69%. For the same substance, the “% growth” value (SK-MEL-5) was 104.39%, the “% growth” value (UACC-257) was 110.00% and the “% growth” value (UACC-62) was 97.30%. For the same substance, the “% growth” value (IGROV1) was 104.23%, the “% growth” value (OVCAR-3) was 116.36% and the “% growth” value (OVCAR-4) was 103.10%. The “% growth” value (OVCAR-5) was 107.30%, the “% growth” value (OVCAR-8) was 104.18% and the “% growth” value (NCI/ADR-RES) was 103.45%. The “% growth” value (SK-OV-3) was 107.23%, the “% growth” value (786-0) was 109.39% and the “% growth” value (A498) was 162.31%. For the same substance, the “% growth” value (ACHN) was 92.14%, the “% growth” value (CAKI-1) was 92.97% and the “% growth” value (SN12C) was 100.69%. The “% growth” value (TK-10) was 119.65%, the “% growth” value (UO-31) was 58.31% and the “% growth” value (PC-3) was 78.25%. The “% growth” value (DU-145) was 116.81%, the “% growth” value (MCF7) was 88.54% and the “% growth” value (MDA-MB-231/ATCC) was 98.99%. The “% growth” value (HS 578T) was 108.39%, the “% growth” value (BT-549) was 95.32% and the “% growth” value (T-47D) was 102.75%. The “% growth” value (MDA-MB-468) was 115.89%, the “activity on all 60 cancer cell lines tested (in words)” value ([1]; one dose) was “weak activity” and the Mean % growth ([1]; one dose 10^-5 M, 48 h, mean over all cell lines) was 103.40%.
